Values of other authors, collected in publication PMC8491460 (Pharmacology Research & Perspectives, 2021).
Counter-ions that a name gives are not always drawn.

Experiments:
[1] = tested on: patients with metastatic melanoma
[2] = tested on: patients with moderate to severe atopic dermatitis; settings: 30 mg administered orally for 8 weeks
[3] = tested on: Colorectal cancer patients; settings: 8.8 or 1.2 g per day oral, admission to 10th postoperative day
[4] = tested on: patients with advanced RCC; settings: IFNα 3–6 MIU s.c. thrice/week, 800 mg cimetidine, 10 mg meloxicam, 4 mg candesartan or perindopril
[5] = clinical trials, adjuvant to IL‐2 immunotherapy
[6] = tested on: human 1205Lu melanoma tumor; settings: 1 mg/kg daily s.c. for 30 days
murine EL4 lymphomas = settings: 75 mg/kg i.p. three times a week for 2 weeks
[7] = tested on: patients with high‐grade non‐Hodgkin lymphoma; settings: 3 MIU IFNα, 1.5 mg/kg IL‐2, and 0.5 mg histamine s.c. 1–2 times daily, 5 days a week
BN‐175 tumors = settings: 40 µg melphalan, 1 mg histamine, and 50 µg IL‐2 in 5 ml perfusate
[8] = tested on: CD11b^+Gr1^+ immature myeloid cells; settings: 0.8 mg/kg i.p. per day for 20 days
[9] = tested on: patients with metastatic RCC
[10] = tested on: breast cancer models E0771 and 4T1; settings: 8 mg/kg in drinking water; E0771 and 4T1, respectively
[11] = tested on: patients with moderate‐to‐severe psoriasis; settings: 30 and 60 mg per day
[12] = tested on: uncontrolled, eosinophilic asthma; settings: 30 mg per day for 24 weeks
rheumatoid arthritis [13] = settings: 100 mg once daily orally for 12 weeks, phase IIa
rheumatoid arthritis [14] = settings: phase IIb trial
[15] = histamine 75 µg/mouse i.p., 100–240 µg/mouse of each antibody
[16] = histamine and anti‐PD‐1/anti‐PD‐L1
[17] = histamine 1500 µg/mouse with anti‐PD‐1/anti‐PD‐L1

CN(C)/N=N/c1[nH]cnc1C(N)=O [Dacarbazine]
overall response rates [1]: 16%

NCCc1c[nH]cn1 [HDC, histamine dihydrochloride]
ROS production by M4/M5 cells and apoptosis in adjacent NK cells (NK cells): inhibited

CN[C@@H]1CCN(c2cc(NCC3CC3)nc(N)n2)C1 [adriforant]
eczema and severity [2]: improved eczema and severity
tolerability [2]: well tolerated

CN/C(=N/CCSCc1nc[nH]c1C)NC#N [cimetidine]
CD19^+ B cells in blood samples [3]: elevated levels
responses [4]: favorable responses

NCCc1c[nH]cn1 [histamine, 2‐(4‐imidazolyl)‐ethylamine]
tolerability [5]: generally well tolerated
neutrophil‐to‐lymphocyte ratio infiltrate [6]: decreased
tumor growth and neovascular formation [6]: reduced
anti‐tumor efficacy of immune checkpoint blockade with anti‐PD‐1/anti‐PD‐L1 (MC‐38 colon carcinoma; [15]): improved
MC‐38 tumor growth (MC‐38 colon carcinoma; histamine 1500 µg/mouse i.p. 3 times a week and anti‐PD‐1/anti‐PD‐L1): strongly reduced
fraction of CD8^+ T cells with an effector phenotype (MC‐38 colon carcinoma; [16]): raised significantly
fraction of intra‐tumoral CD8^+ T cells (MC‐38 colon carcinoma; [16]): tending to increase
intra‐tumoral NK cells (MC‐38 colon carcinoma; [16]): decreased
percentage of intra‐tumoral CD4^+ T cells (MC‐38 colon carcinoma; [16]): not altered
tumor‐infiltrating DCs (murine EL4 lymphomas; WT mice): increased
growth of murine EL4 lymphomas (murine EL4 lymphomas; WT mice but not NOX2‐deficient mice): reduced
frequency of cytokine‐producing T cells and NK‐cell‐mediated cytotoxicity [7]: significant increases
response (BN‐175 tumors): no improved response
accumulation and immunosuppressive features of MDSCs (EL4 lymphoma; 75 µg/mouse i.p. three times a week): diminished
tumor growth (EL4 lymphoma; 75 µg/mouse i.p. three times a week starting 1 day before tumor inoculation): diminished tumor growth
expression of PD‐L1 on MDSCs or PD‐1 on CD8^+ T cells (EL4 lymphoma; EL4 tumor‐bearing mice, histamine): did not alter
anti‐tumor efficacy of immune checkpoint blockade with anti‐PD‐1/anti‐PD‐L1 (EL4 lymphoma; [15]): improved
fraction of CD8^+ T cells displaying an effector phenotype (EL4 lymphoma; [17]): slightly increased
intra‐tumoral proportion of MDSCs, or T and NK cells (EL4 lymphoma; [17]): did not affect
ability of immature myeloid cells to support the growth of tumor allografts [8]: suppressed
differentiation of CD11b^+Gr1^+ immature myeloid cells ([8]; through H1 receptor and H2 receptor): induced their terminal differentiation into monocytes and neutrophils
tolerability ([9]; 1 mg HDC s.c. b.i.d. with IFNα 3 MIU and IL‐2 2.4 MIU/m^2): well tolerated
TILs, blood leukocyte count, f‐chain expression, or cytotoxicity ([9]; similar treatment scheme): did not influence

CNC(=C[N+](=O)[O-])NCCSCc1ccc(CN(C)C)o1 [ranitidine]
primary tumor growth and metastasis [10]: consistently reduced

Cc1cc(C)c2nc(-c3cnc(NCCCC4CCN(C)CC4)nc3C)[nH]c2c1 [toreforant]
response versus placebo [11]: greater response than placebo
improvement of uncontrolled, eosinophilic asthma [12]: failed to improve
signs and symptoms of rheumatoid arthritis (rheumatoid arthritis [13]): reduced
confirmation of the reduction of signs and symptoms (rheumatoid arthritis [14]): could not be confirmed

IL‐2: interleukin‐2 immunotherapeutic cytokine
overall response rates [1]: 16%
